Assay [1] deals with Aspergillus fumigatus. Put plainly: Lowest concentration required to inhibit 90-100% in vitro growth of Aspergillus fumigatus. Format: functional.
For assay [2], the species on record is Mus musculus. Kind of assay: Ratio of the drug concentration required to achieve 50% survival of fungal infection compared with untreated animals to that of ED50 of PSB. Format: functional.
Assay [3] concerns Candida albicans. Kind of assay: Lowest concentration required to inhibit 90-100% in vitro growth of Candida albicans. The format is functional.
The subject of assay [4] is Cryptococcus neoformans. Kind of assay: Lowest concentration required to inhibit 90-100% in vitro growth of Cryptococcus neoformans.
Assay [5] concerns Mus musculus. Put plainly: Tail vein toxicity at 20 mg/kg dose was determined in mice;Positive. The format is functional, organism-based. Further details: dose 20 mg/kg.
The species entered for assay [6] is Mus musculus. Put plainly: Ratio of the drug concentration required to achieve 50% survival of fungal infection compared with untreated animals to that of ED50 of PSB;value in range of 2-7. Format: functional.

In brackets after ≈: the same amount, converted by molar mass. Positions of bridges follow the written chain, without caps; N, C: chain ends. Non-standard residues stand in square brackets, D forms with d. Residues, ends and D or L forms follow the SMILES beside them. *: point of attachment. Tetradecanoyl(3R-OH) = CCCCCCCCCCC[C@@H](O)CC(=O)*; Asp(3S-OH) = N[C@H](C(=O)O)[C@H](O)C(=O)O; Thr(4-Cl) = N[C@H](C(=O)O)[C@H](O)CCl; aThr = C[C@H](O)[C@H](N)C(=O)O; dDab = NCC[C@@H](N)C(=O)O; Dab = NCC[C@H](N)C(=O)O; Dhb = C/C=C(\N)C(=O)O

Consider 13 compounds from ChEMBL document CHEMBL1134745, “Synthesis and evaluation of novel pseudomycin side-chain analogues. Part 3” (2001).

By MIC is commonly meant the least concentration at which growth counts as inhibited.

Take `C/C=C1\NC(=O)[C@H]([C@@H](C)O)NC(=O)[C@H](CCN)NC(=O)[C@H](CCCCN)NC(=O)[C@H](CC(=O)NCCN(C)C)NC(=O)[C@@H](CCN)NC(=O)[C@@H](NC(=O)C[C@@H](O)CCCCCCCCCCC)COC(=O)[C@H]([C@H](O)CCl)NC(=O)[C@H]([C@H](O)C(=O)O)NC1=O`: the MIC in assay [1] is 5 µg/mL (≈ 3.91 µM); in assay [3] it was 0.156 µg/mL (≈ 0.122 µM); in assay [4], under 0.01 µg/mL. Moreover, the Ratio in assay [2] is under 5.
Consider `C/C=C1\NC(=O)[C@H]([C@@H](C)O)NC(=O)[C@H](CCNC(=O)OCc2oc(=O)oc2C)NC(=O)[C@H](CCCCNC(=O)OCc2oc(=O)oc2C)NC(=O)[C@H](CC(=O)O)NC(=O)[C@@H](CCNC(=O)OCc2oc(=O)oc2C)NC(=O)[C@@H](NC(=O)C[C@@H](O)CCCCCCCCCCCCCCC)COC(=O)[C@H]([C@H](O)CCl)NC(=O)[C@H]([C@H](O)C(=O)O)NC1=O`, for which the MIC in assay [1], in assay [3] and in assay [4] was over 20 µg/mL throughout. For the same compound, the Ratio in assay [2] was over 19.
In the case of `C/C=C1\NC(=O)[C@H]([C@H](C)O)NC(=O)[C@H](CCN)NC(=O)[C@H](CCCCN)NC(=O)[C@H](CC(=O)O)NC(=O)[C@@H](CCN)NC(=O)[C@@H](NC(=O)C[C@H](O)CCCCCCCCCCCCCCC)COC(=O)[C@H]([C@H](O)CCl)NC(=O)[C@H]([C@H](O)C(=O)O)NC1=O`, the MIC in assay [1] came out at 5 µg/mL (≈ 3.96 µM); in assay [3], 0.625 µg/mL (≈ 0.495 µM); in assay [4] it was 0.01 µg/mL (≈ 0.00791 µM). Moreover, in assay [5], the Toxicity result is “Positive”. For the same compound, in assay [2], the Ratio is reported as over 20.
With `C/C=C1\NC(=O)[C@H]([C@@H](C)O)NC(=O)[C@H](CCNC(=O)OCc2oc(=O)oc2C)NC(=O)[C@H](CCCCNC(=O)OCc2oc(=O)oc2C)NC(=O)[C@H](CC(=O)O)NC(=O)[C@@H](CCNC(=O)OCc2oc(=O)oc2C)NC(=O)[C@@H](NC(=O)C[C@@H](O)CCCCCCCCCCC)COC(=O)[C@H]([C@H](O)CCl)NC(=O)[C@H]([C@H](O)C(=O)O)NC1=O`, the minimum inhibitory concentration (MIC) in assay [1], in assay [3] and in assay [4] was over 20 µg/mL in each case. In addition, the Ratio in assay [2] stood at 7.8.
Regarding `C/C=C1\NC(=O)[C@H]([C@H](C)O)NC(=O)[C@H](CCN)NC(=O)[C@H](CCCCN)NC(=O)[C@H](CC(=O)O)NC(=O)[C@@H](CCN)NC(=O)[C@@H](NC(=O)C[C@H](O)CCCCCCCCCCC)COC(=O)[C@H]([C@H](O)CCl)NC(=O)[C@H]([C@H](O)C(=O)O)NC1=O` [PSEUDOMYCIN B] ({Tetradecanoyl(3R-OH)}-S[dDab]DK[Dab][aThr][Dhb][Asp(3S-OH)][Thr(4-Cl)]; ester 1-C), the MIC was 20 µg/mL (≈ 16.6 µM) in assay [1], 0.625 µg/mL (≈ 0.517 µM) in assay [3] and 0.039 µg/mL (≈ 0.0323 µM) in assay [4]. Besides, in assay [5], the Toxicity entry is “Positive”. In addition, the Ratio in assay [6] was found to be 7.
With `C/C=C1\NC(=O)[C@H]([C@@H](C)O)NC(=O)[C@H](CCNC(=O)OCOC(=O)C(C)C)NC(=O)[C@H](CCCCNC(=O)OCOC(=O)C(C)C)NC(=O)[C@H](CC(=O)O)NC(=O)[C@@H](CCNC(=O)OCOC(=O)C(C)C)NC(=O)[C@@H](NC(=O)C[C@@H](O)CCCCCCCCCCC)COC(=O)[C@H]([C@H](O)CCl)NC(=O)[C@H]([C@H](O)C(=O)O)NC1=O`, the MIC in assay [1], in assay [3] and in assay [4] was over 20 µg/mL each time. Further, the Ratio in assay [2] amounted to 11.4.
Consider `C/C=C1\NC(=O)[C@H]([C@@H](C)O)NC(=O)[C@H](CCN)NC(=O)[C@H](CCCCN)NC(=O)[C@H](CC(=O)OC)NC(=O)[C@@H](CCN)NC(=O)[C@@H](NC(=O)C[C@@H](O)CCCCCCCCCCCCCCC)COC(=O)[C@H]([C@H](O)CCl)NC(=O)[C@H]([C@H](O)C(=O)OC)NC1=O`, for which the MIC in assay [1] is 20 µg/mL (≈ 15.5 µM); in assay [3], 5 µg/mL (≈ 3.87 µM); in assay [4], 1.25 µg/mL (≈ 0.968 µM). For the same compound, the Ratio in assay [2] is reported as over 20.
Regarding `C/C=C1\NC(=O)[C@H]([C@@H](C)O)NC(=O)[C@H](CCNC(=O)OCOC(=O)C(C)C)NC(=O)[C@H](CCCCNC(=O)OCOC(=O)C(C)C)NC(=O)[C@H](CC(=O)O)NC(=O)[C@@H](CCNC(=O)OCOC(=O)C(C)C)NC(=O)[C@@H](NC(=O)C[C@@H](O)CCCCCCCCCCCCCCC)COC(=O)[C@H]([C@H](O)CCl)NC(=O)[C@H]([C@H](O)C(=O)O)NC1=O`, the MIC in assay [1], in assay [3] and in assay [4] was over 20 µg/mL throughout. The Ratio in assay [2] was over 14.
On to `C/C=C1\NC(=O)[C@H]([C@@H](C)O)NC(=O)[C@H](CCNC(=O)OCOC(=O)C(C)(C)C)NC(=O)[C@H](CCCCNC(=O)OCOC(=O)C(C)(C)C)NC(=O)[C@H](CC(=O)O)NC(=O)[C@@H](CCNC(=O)OCOC(=O)C(C)(C)C)NC(=O)[C@@H](NC(=O)C[C@@H](O)CCCCCCCCCCC)COC(=O)[C@H]([C@H](O)CCl)NC(=O)[C@H]([C@H](O)C(=O)O)NC1=O`, for which the MIC in assay [1], in assay [3] and in assay [4] was over 20 µg/mL in each case. The Ratio in assay [2] is listed as 6.4.
Regarding `C/C=C1/NC(=O)[C@H]([C@@H](C)O)NC(=O)[C@H](CCNC(=O)OCOC(=O)C(C)(C)C)NC(=O)[C@H](CCCCNC(=O)OCOC(=O)C(C)(C)C)NC(=O)[C@H](CC(=O)O)NC(=O)[C@@H](CCNC(=O)OCOC(=O)C(C)(C)C)NC(=O)[C@@H](NC(=O)C[C@@H](O)CCCCCCCCCCCCCCC)COC(=O)[C@H]([C@H](O)CCl)NC(=O)[C@H]([C@H](O)C(=O)O)NC1=O`, the MIC in assay [1], in assay [3] and in assay [4] was over 20 µg/mL in each case. For the same compound, in assay [2], the Ratio is over 20.
Take `C/C=C1\NC(=O)[C@H]([C@@H](C)O)NC(=O)[C@H](CCN)NC(=O)[C@H](CCCCN)NC(=O)[C@H](CC(=O)O)NC(=O)[C@@H](CCN)NC(=O)[C@@H](NC(=O)C[C@H](O)CCCCCCCCCCCCCCC)COC(=O)[C@H]([C@H](O)CCl)NC(=O)[C@H]([C@H](O)C(=O)O)NC1=O`: the MIC in assay [1] came to 5 µg/mL (≈ 3.96 µM); in assay [3], 1.25 µg/mL (≈ 0.989 µM); in assay [4], 0.02 µg/mL (≈ 0.0158 µM). For the same compound, the Ratio in assay [2] is recorded as over 20.
As for `C/C=C1\NC(=O)[C@H]([C@@H](C)O)NC(=O)[C@H](CCN)NC(=O)[C@H](CCCCN)NC(=O)[C@H](CC(=O)OC)NC(=O)[C@@H](CCN)NC(=O)[C@@H](NC(=O)C[C@@H](O)CCCCCCCCCCC)COC(=O)[C@H]([C@H](O)CCl)NC(=O)[C@H]([C@H](O)C(=O)OC)NC1=O`, the MIC was 20 µg/mL (≈ 16.2 µM) in assay [1], 2.5 µg/mL (≈ 2.02 µM) in assay [3] and 0.01 µg/mL (≈ 0.00809 µM) in assay [4]. Besides, the Ratio in assay [2] came out at 7.8.
Take `C/C=C1\NC(=O)[C@H]([C@@H](C)O)NC(=O)[C@H](CCN)NC(=O)[C@H](CCCCN)NC(=O)[C@H](CC(=O)NC2CC2)NC(=O)[C@@H](CCN)NC(=O)[C@@H](NC(=O)C[C@@H](O)CCCCCCCCCCC)COC(=O)[C@H]([C@H](O)CCl)NC(=O)[C@H]([C@H](O)C(=O)O)NC1=O`: the values for the MIC in assay [1], in assay [3] and in assay [4] were over 20 µg/mL, 0.156 µg/mL (≈ 0.125 µM) and under 0.01 µg/mL, respectively. Besides, in assay [2], the Ratio is under 5.
